Test results reported in patent US20070135437A1, “Modulation of neurodegenerative diseases” (ALSGEN, INC., priority 2005, published 2007).

Each compound was assayed on hSOD-1 protein levels in HeLa cells (assay: SOD-1 ELISA on lysates of HeLa cells after 72 h incubation with compound). Settings: Table 1B; % reduction of hSOD-1 protein levels in HeLa cells, 72 h treatment, 10 μM.
Assay type: cell-based, human
Method: Briefly, cells were maintained in Dulbecco's Minimal Essential Medium, with high glucose, supplemented with glutamine, 4 mM, certified fetal bovine serum, 10%, and penicillin, streptomycin, and nystatin (all from Invitrogen). Incubation conditions were 37 degrees and 99% relative humidity, with CO2 at 5%. Cultures were passaged when they reached 90% confluence. For pharmacological experiments, cells were plated into sterile tissue culture treated 96 well plates at a density of 3,500 cells/well in 150 μl medium. After plating and 6 hours for attachment, drugs were added to the medium in a concentration of 10 μM. Following 72 hours of incubation with the drugs, the cells were photographed at 100× using an inverted microscope and digital camera, so that cytotoxicity could be evaluated. After photodocumentation, the medium was removed and the cells were washed once with phosphate buffered saline, and then 50-100 μl molecular biology grade water containing a protease inhibitor cocktail was added. After 10 min incubation, the plates were placed in −80 degrees to induce complete lysis. Plates were then thawed and 4-25 μl was transferred from each well into a maxsorp ELISA plate coated with anti-human SOD-1 antibody, which contained 75-100 μl phosphate buffered saline or blocking buffer. A second antibody pair (a polyclonal anti-SOD-1/HRP conjugated goat anti-rabbit) was then added to the well, and incubation was conducted for 1 hour at room temperature. At the conclusion of the incubation, the plate was washed three times (wash buffer from KPL Inc.) and Sure Blue Reserve HRP Substrate was added. Following a 5-10 min incubation, the reaction (which had turned blue to varying degrees) was stopped by the addition of a stop reagent (KPL). The plate was then shaken gently for 5 seconds and the absorbance at 450 nm read on a Tecan Plate reader. Absorbance from each sample were compared to standard curve of purified recombinant human SOD-1 assayed on the same ELISA plate, and SOD-1 immunoreactivity (ng/ml) was estimated by comparison with the standard curve. This example describes how to examine the in vitro effects of the antimalarial drug, pyrimethamine, as well as the compounds listed in Tables 1 through 5, on SOD-1 activity. The human cervical carcinoma derived HeLa cell line (ATCC) were cultured in Dulbecco's Minimal Essential Medium, with high glucose, supplemented with glutamine, 4 mM, certified fetal bovine serum, 10%, and penicillin, streptomycin, and nystatin (all from Invitrogen). Incubation conditions were 37° C. and 99% relative humidity, with CO2 at 5%. Cultures were passaged when they reached 90% confluence. For pharmacological experiments, cells were plated into sterile tissue culture treated 96 well plates at a density of 3,500 cells/well in 150 μl medium. Following 72 hours of incubation with each of the compounds, the cells were photographed and processed as described in Example 1 (iii). The total protein of the lysates was determined by Bradford assay as described in Example 1 (iv).
`Cc1cc(-c2ccccc2)nc(N(C)C)n1` [Compound 1] was tested, and the “Biological Activity (% inhibition at 10 μM)” value was 33%.
With `CN(C)c1cc(Cl)nc(SCc2ccccc2)n1` [Compound 2] the “Biological Activity (% inhibition at 10 μM)” value was 77%.
`Cc1cc(C)nc(SCc2cccc(Br)c2)n1` [Compound 3] was tested, and the “Biological Activity (% inhibition at 10 μM)” value was 88%.
`Cc1ccc(Nc2nc(Cl)nc(Cl)c2Cl)cc1` [Compound 4] was tested, and the “Biological Activity (% inhibition at 10 μM)” value was 96%.
For `Cc1cnc(SCc2ccccc2Cl)nc1O` [Compound 5], the “Biological Activity (% inhibition at 10 μM)” value was 79%.
In the case of `CCc1nc(N)nc(N)c1-c1ccc(Cl)cc1` [Compound 6], the “Biological Activity (% inhibition at 10 μM)” value is reported as 50%.
In the case of `Cc1cccc(Oc2cnc(S)nc2O)c1` [Compound 7], the “Biological Activity (% inhibition at 10 μM)” value is reported as 94%.
In the case of `Nc1nc(S)ncc1-c1cccc(Cl)c1` [Compound 8], the “Biological Activity (% inhibition at 10 μM)” value is reported as 99%.
`N#Cc1ccc(CSc2nc(O)cc(O)n2)cc1` [Compound 9] was tested, and the “Biological Activity (% inhibition at 10 μM)” value was 58%.
`CCCOc1ccc(-c2cnc(S)nc2N)cc1` [Compound 10] was tested, and the “Biological Activity (% inhibition at 10 μM)” value was 99%.
In the case of `CCOc1ccc(-c2cnc(S)nc2N)cc1` [Compound 11], the “Biological Activity (% inhibition at 10 μM)” value is reported as 99%.
With `COc1ccc(Cc2c(Cl)nc(SC)nc2Cl)cc1` [Compound 12] the “Biological Activity (% inhibition at 10 μM)” value was 40%.
For `CC(Oc1ccc(Cl)cc1)c1ccnc(N)n1` (centres unmarked) [Compound 22], the “Biological Activity (% inhibition at 10 μM)” value was 84%.
With `Nc1nc(O)ncc1-c1ccc(Cl)cc1` [Compound 23] the “Biological Activity (% inhibition at 10 μM)” value was 99%.
In the case of `Nc1nc(SCC(=O)O)ncc1-c1ccc(Cl)cc1` [Compound 24], the “Biological Activity (% inhibition at 10 μM)” value is reported as 99%.
`Cc1ccc(Oc2cnc(S)nc2O)cc1` [Compound 25] was tested, and the “Biological Activity (% inhibition at 10 μM)” value was 97%.
With `Cc1nc(N)nc(O)c1C=CCc1ccc(Cl)cc1` [Compound 26] the “Biological Activity (% inhibition at 10 μM)” value was 97%.
For `Cc1nc(N)nc(N)c1CCCCc1ccc(O)cc1` [Compound 27], the “Biological Activity (% inhibition at 10 μM)” value was 95%.
In the case of `CSc1ncc(Oc2ccc(Cl)cc2)c(O)n1` [Compound 88], the “Biological Activity (% inhibition at 10 μM)” value is reported as 90%.
`COc1ccc(-c2cc(O)ncn2)cc1OC` [Compound 89] was tested, and the “Biological Activity (% inhibition at 10 μM)” value was 84%.
`Nc1ccc(Sc2cc(Cl)nc(N)n2)cc1` [Compound 92] was tested, and the “Biological Activity (% inhibition at 10 μM)” value was 81%.
With `Cc1cc(C)nc(NC(=N)Nc2cccc(Cl)c2)n1` [Compound 93] the “Biological Activity (% inhibition at 10 μM)” value was 78%.
With `Cc1cc(C)nc(Sc2ccc(N)cc2)n1` [Compound 94] the “Biological Activity (% inhibition at 10 μM)” value was 77%.
With `CSc1nc(N)nc(-c2ccc(Cl)cc2)c1C#N` [Compound 95] the “Biological Activity (% inhibition at 10 μM)” value was 76%.
For `CCc1c(O)ncnc1-c1ccc(C)cc1` [Compound 96], the “Biological Activity (% inhibition at 10 μM)” value was 70%.
`CSc1ccc(CCCc2c(C)nc(N)nc2N)cc1` [Compound 97] was tested, and the “Biological Activity (% inhibition at 10 μM)” value was 69%.
`COc1ccc(Cc2c(C)nc(N)nc2O)cc1` [Compound 98] was tested, and the “Biological Activity (% inhibition at 10 μM)” value was 67%.
For `Oc1ccnc(SCc2ccc(Cl)cc2Cl)n1` [Compound 99], the “Biological Activity (% inhibition at 10 μM)” value was 66%.
`COc1ccc(CCCc2c(C)nc(N)nc2N)cc1` [Compound 100] was tested, and the “Biological Activity (% inhibition at 10 μM)” value was 65%.
With `Oc1ccnc(SCc2c(F)cccc2Cl)n1` [Compound 101] the “Biological Activity (% inhibition at 10 μM)” value was 65%.
For `COc1ccc(Cc2cnc(N)nc2N)cc1OC` [Compound 102], the “Biological Activity (% inhibition at 10 μM)” value was 64%.
With `N#Cc1ccc(CSc2nccc(O)n2)cc1` [Compound 105] the “Biological Activity (% inhibition at 10 μM)” value was 53%.
`N#Cc1c(Cl)nc(Cl)nc1Nc1ccccc1` [Compound 106] was tested, and the “Biological Activity (% inhibition at 10 μM)” value was 53%.
`CC(=O)c1c(C)nc(-c2ccc(Cl)cc2)nc1N` [Compound 107] was tested, and the “Biological Activity (% inhibition at 10 μM)” value was 52%.
For `Cc1nc(N)nc(N)c1C=Cc1ccccc1` [Compound 109], the “Biological Activity (% inhibition at 10 μM)” value was 38%.
For `Cc1nc(N)nc(N)c1OCc1ccc(Cl)cc1Cl` [Compound 110], the “Biological Activity (% inhibition at 10 μM)” value was 38%.
For `Cc1nc(N)nc(N)c1OCCc1ccc(Cl)cc1` [Compound 111], the “Biological Activity (% inhibition at 10 μM)” value was 37%.
In the case of `Cc1nc(N)nc(N)c1-c1ccc(Cl)c(Cl)c1` [Compound 112], the “Biological Activity (% inhibition at 10 μM)” value is reported as 36%.
